As a reminder, the Kd is the concentration at which binding is half-saturated.

The source made the active and inactive calls. How the calls were made is not given here.

For this assay, the target named is Serine/threonine-protein kinase mTOR (Homo sapiens) (UniProt P42345). Nature of the assay: binders of mTOR FRB domain, biophysical, NMR (AID 1648). The following applies: NMR binding to FRB domain, chemical shift.
Sequence of Serine/threonine-protein kinase mTOR (Homo sapiens) (P42345 2015-2114): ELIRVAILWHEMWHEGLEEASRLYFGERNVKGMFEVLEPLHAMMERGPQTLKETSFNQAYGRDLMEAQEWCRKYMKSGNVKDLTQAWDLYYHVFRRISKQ
On to `CCN1C(=O)c2c(C)nc3ccccc3c2C1=O`, for which the Kd was > 4 mM (inactive).

With `C=C1CCC(=O)C(C)CCC2C1CC2(C)C` (configuration not stated), the Kd was > 4 mM (inactive).

Take `Nc1c(S(=O)(=O)c2ccccc2)csc1C(=O)O`: the Kd was > 4 mM (inactive).

As for `CC1SC(=NC(=O)c2ccncc2)NC1=O` (configuration not stated), the Kd is > 4 mM (inactive).

As to `O=C(NC1=NCCS1)c1ccc2snnc2c1`, the Kd is > 4 mM (inactive).

Take `NC(=O)CSc1nc2ccccc2c(=O)[nH]1`: the Kd is > 4 mM (inactive).

With `COC(=O)c1cccc(Cn2nnc3ccccc3c2=O)c1`, the Kd is > 4 mM (inactive).

With `O=C(O)Cn1nc(-c2ccccc2)c2ccccc2c1=O`, the Kd was > 4 mM (inactive).

Turning to `S=c1oc(-c2ccncc2)nn1CCc1ccncc1`, the Kd is > 4 mM (inactive).

For `COc1ccc(C2=CC(=O)C=CC2=O)cc1`, the Kd was > 4 mM (inactive).

Take `O=[N+]([O-])c1ccc2c(c1)N([O-])C1(CCCCC1)[N+]2=O`: the Kd was > 4 mM (inactive).

Regarding `Cc1sc2nc(SCC(=O)N(C)C)[nH]c(=O)c2c1C`, the Kd is > 4 mM (inactive).

Turning to `Cc1cc(C(=O)N2CCN(S(C)(=O)=O)CC2)cs1`, the Kd is > 4 mM (inactive).

For `CN(C)CCNC(CC(=O)Nc1ccccc1)C(=O)O` (configuration not stated), the Kd is > 4 mM (inactive).

Turning to `COC(=O)c1cn(C(=O)OC)c2ccccc12`, the Kd was > 4 mM (inactive).

Regarding `CN(C)S(=O)(=O)c1cccc(N)c1`, the Kd was > 4 mM (inactive).

Regarding `c1cc(C(N2CCOCC2)N2CCOCC2)ccn1`, the Kd is > 4 mM (inactive).

Consider `O=C(O)C1=Cc2ccccc2OC1`, for which the Kd was > 4 mM (inactive).

Take `O=C(CO)N/N=C/c1ccccc1F`: the Kd is > 4 mM (inactive).

For the molecule `CNC(=O)c1ccccc1-c1ccccc1`, the Kd is > 4 mM (inactive).

For the molecule `CNCc1ccccc1`, the Kd was > 4 mM (inactive).

Consider `COc1cc(/C=C/C(=O)O)ccc1O`, for which the Kd is > 4 mM (inactive).

In the case of `CC1=CC2C(CC1=O)C(C)=CCC2C(C)C` (configuration not stated), the Kd was > 4 mM (inactive).

`CN(C)S(=O)(=O)c1ccccc1C#N`: the Kd is > 4 mM (inactive).

For the molecule `COc1cc(O)c2c(=O)cc(-c3ccc(OC)c(-c4c(O)cc(O)c5c(=O)cc(-c6ccc(O)cc6)oc45)c3)oc2c1`, the Kd is > 4 mM (inactive).

Regarding `N#C/C(=C\c1ccc[nH]1)S(=O)(=O)c1ccccc1`, the Kd is > 4 mM (inactive).

With `Cc1cc(SCC(=O)c2ccccc2)nc(=O)[nH]1`, the Kd was > 4 mM (inactive).

In the case of `O[C@H]1C=C2CCN3Cc4cc5c(cc4C(C23)[C@@H]1O)OCO5` (some centres not stated), the Kd is > 4 mM (inactive).

Regarding `CCNS(=O)(=O)c1ccc(OC)c(C)c1`, the Kd was > 4 mM (inactive).

On to `COC(=O)C[C@H]1C2(C)CC34OC5(C)O[C@@]6([C@H](OC)C(OC(=O)C(C)C)[C@]7(C)C(/C(=C(/OC)C(C)C)C(=O)O[C@H]7c7ccoc7)[C@@]6(O5)[C@H](OC)[C@@]3(OC)C2OC(C)=O)[C@]14C` (some centres not stated), for which the Kd is > 4 mM (inactive).

Regarding `OC[C@H]1O[C@@H](O[C@H]2[C@H](O)[C@@H](O)[C@@H](O)O[C@@H]2CO)[C@H](O)[C@@H](O)[C@@H]1O`, the Kd is > 4 mM (inactive).

For the molecule `CC12CCC(O)CC1CCC1C2[C@H](O)CC2(C)C(C3=CC(=O)OC3)CCC12O` (some centres not stated), the Kd is > 4 mM (inactive).

In the case of `Cc1ccc2c(c1)CCCN2C(=O)c1c(C)noc1C`, the Kd was > 4 mM (inactive).

In the case of `Fc1ccc(NC2=NCCS2)cc1Cl`, the Kd was > 4 mM (inactive).

With `CCCCCCCCCCCC[C@H](C(=O)O)[C@@H](C)C(=O)O`, the Kd is > 4 mM (inactive).

For `CC(=O)Oc1ccc2c(c1OC(C)=O)OCC1(O)Cc3c(cc(OC(C)=O)c(OC(C)=O)c3OC(C)=O)C21` (configuration not stated), the Kd was > 4 mM (inactive).

Turning to `O=C(Cn1cnc2ccccc2c1=O)N1CCOCC1`, the Kd was > 4 mM (inactive).

Consider `CC1=C2[C@H]3OC(=O)[C@@H](C)[C@@H]3CC[C@@]2(C)C=CC1=O`, for which the Kd was > 4 mM (inactive).

With `O=C1CC(=O)N(c2ccccc2)c2ccccc21`, the Kd was > 4 mM (inactive).

Turning to `Cc1ccc(C)n1NC(=O)c1cccs1`, the Kd was > 4 mM (inactive).

For the molecule `Cn1nnc2cc(CO)ccc21`, the Kd is > 4 mM (inactive).

As to `c1ccc(SCc2nc(-c3ccncc3)no2)cc1`, the Kd is > 4 mM (inactive).

For `O=C(O)c1cn(-c2ccccc2)nc1-c1cccnc1`, the Kd is > 4 mM (inactive).

In the case of `NC12CC3CC(C1)CC(C(=O)O)(C3)C2`, the Kd was > 4 mM (inactive).

Turning to `O=c1ccc2c([nH]1)CCCC2`, the Kd was > 4 mM (inactive).

As to `CC1(C)C2CC(=O)[C@]3(C)C(CC[C@@]4(C)[C@H](c5ccoc5)OC(=O)[C@H]5O[C@]543)[C@@]2(C)C=C[C@@H]1O` (some centres not stated), the Kd was > 4 mM (inactive).

Consider `CC1CCC(N2CCN(c3ncccn3)CC2)CC1` (configuration not stated), for which the Kd was > 4 mM (inactive).

In the case of `O=C(O)c1cccc2c1OCC2`, the Kd is > 4 mM (inactive).

As for `Cc1cc(C)n2nc(-c3cccnc3)nc2n1`, the Kd was > 4 mM (inactive).

Consider `COCC(=O)Nc1cc2c3c(c1)CCN3C(=O)CC2`, for which the Kd was > 4 mM (inactive).

In the case of `COC1C(O)C(O)C(O)[C@@H](O)C1O` (some centres not stated), the Kd was > 4 mM (inactive).

`Cc1occc1C(=O)Nc1ccc2c(c1)OCO2`: the Kd is > 4 mM (inactive).

Turning to `Cc1cn(C(=O)CN2C(=O)c3ccccc3C2=O)c(C)n1`, the Kd is > 4 mM (inactive).

For `Cc1occc1C(=O)NCc1ccccn1`, the Kd was > 4 mM (inactive).

As to `CC(C)=CC(=O)Nc1ccc(S(N)(=O)=O)cc1`, the Kd was > 4 mM (inactive).

In the case of `O=c1cc(O)nc(SCc2ccccc2)[nH]1`, the Kd was > 4 mM (inactive).

As to `O=C(c1ccccc1)N1CCOCC1`, the Kd was > 4 mM (inactive).

As to `Cc1ccc(SCC(=O)N2CCOCC2)cc1`, the Kd was > 4 mM (inactive).

`Cc1ccc(S(=O)(=O)CC(=O)N2CCCC2)cc1`: the Kd is > 4 mM (inactive).

Regarding `NC(=O)CSc1nnc2ccc(-c3ccccn3)nn12`, the Kd was > 4 mM (inactive).

As to `NC(N)=Nc1nc2ccccc2o1`, the Kd was > 4 mM (inactive).

Turning to `S=C(Nc1ccc2nccnc2c1)N1CCOCC1`, the Kd was > 4 mM (inactive).

For the molecule `CCN1CCC(NC2CCCCNC2=O)CC1` (configuration not stated), the Kd was > 4 mM (inactive).

On to `CCCS(=O)(=O)N1CCN(c2ccccn2)CC1`, for which the Kd is > 4 mM (inactive).

For `O=C(NCC1CCNCC1)c1ccccn1`, the Kd was > 4 mM (inactive).

Turning to `CP(C)(=O)CCC(=O)O`, the Kd is > 4 mM (inactive).

In the case of `Nn1c(CN2CCCCC2)nc2ccccc2c1=O`, the Kd is > 4 mM (inactive).

For `Cn1nnc2cc(C(=O)NC3CCCCC3)ccc21`, the Kd is > 4 mM (inactive).

Take `O=C(O)c1ccc(N2CCOCC2)cc1`: the Kd is > 4 mM (inactive).

`C=C[C@H]1CN2CC[C@H]1C[C@H]2[C@H](O)c1ccnc2ccccc12`: the Kd was > 4 mM (inactive).

As for `Cc1sc2nc[nH]c(=S)c2c1C`, the Kd was > 4 mM (inactive).

As for `CC(=O)NN1C(=O)c2cccc3cccc(c23)C1=O`, the Kd is > 4 mM (inactive).

As for `CC(C)NC(=O)Cc1c(O)c2ccccc2[nH]c1=O`, the Kd is > 4 mM (inactive).

With `O=C(O)c1cc2ccccc2s1`, the Kd is > 4 mM (inactive).

With `COc1ccc(C2(CN)CCOCC2)cc1OC`, the Kd was > 4 mM (inactive).

For the molecule `Cc1cccc(NC(=O)c2ccccc2C(=O)O)c1`, the Kd was > 4 mM (inactive).

For `C1CCN2C[C@@H]3C[C@H](CN4CCCC[C@@H]34)[C@H]2C1`, the Kd is > 4 mM (inactive).

Regarding `Cc1c(N=CN(C)C)c(=O)n(-c2ccccc2)n1C`, the Kd is > 4 mM (inactive).

As for `Cc1ccc(N2C(=O)CC(Sc3ncn[nH]3)C2=O)cc1` (configuration not stated), the Kd was > 4 mM (inactive).

Consider `CSc1ccc(/C=N/n2c(C)nnc2C)cc1`, for which the Kd was > 4 mM (inactive).

For `CC(O)c1nc2ccccc2[nH]1` (configuration not stated), the Kd is > 4 mM (inactive).

Regarding `CN(C)C(=O)Oc1ccc(-c2nnco2)cc1`, the Kd was > 4 mM (inactive).

Take `O=C(O)/C=C/C=C/c1ccccc1`: the Kd was > 4 mM (inactive).

As to `NC(=O)CSc1nnc2ccc(-c3ccco3)nn12`, the Kd was > 4 mM (inactive).

For `Cc1nc(-c2ccccc2)sc1CN`, the Kd is > 4 mM (inactive).

Turning to `O=C(O)c1ccc(NCc2cccnc2)cc1`, the Kd was > 4 mM (inactive).

For the molecule `Cn1cnc2c(cnn2-c2ccccc2)c1=O`, the Kd was > 4 mM (inactive).

For the molecule `CC(C)=CCOc1c2occc2cc2ccc(=O)oc12`, the Kd is > 4 mM (inactive).

Regarding `Cc1cc(O)cc(=O)o1`, the Kd is > 4 mM (inactive).

For `Cc1cc(C)n2c(SCc3c(C)noc3C)nnc2n1`, the Kd is > 4 mM (inactive).

Consider `Cc1nc2nc(Cc3ccccc3)[nH]n2c(=O)c1Cl`, for which the Kd is > 4 mM (inactive).

For the molecule `OCC1CNc2ccccc2O1` (configuration not stated), the Kd is > 4 mM (inactive).

Regarding `CC(NC(=O)c1ccco1)C1CCCO1` (configuration not stated), the Kd was > 4 mM (inactive).

As for `NC(=O)C1CCN(Cc2ccccc2)CC1`, the Kd was > 4 mM (inactive).

For `COc1ccc(NC(=O)C(N)=O)cc1Cl`, the Kd was > 4 mM (inactive).

Regarding `Nc1ccc2sccc2c1`, the Kd was > 4 mM (inactive).

`C=CCCCCCCCCCCCC(O)CC(O)COC(C)=O` (configuration not stated) (tested in a mixture with another compound): the Kd was > 4 mM (inactive).

In the case of `COc1cc2c(cc1OC)[C@@H]1C(=O)c3ccc(OC)c(CC=C(C)C)c3O[C@@H]1CO2`, the Kd is > 4 mM (inactive).

Turning to `COC(CC(=O)O)c1nc2ccccc2s1` (configuration not stated), the Kd is > 4 mM (inactive).

With `Oc1ccccc1N1CCCC1`, the Kd is > 4 mM (inactive).

As to `COc1ccc(Cl)cc1-c1nc(-c2ccncc2)no1`, the Kd was > 4 mM (inactive).

For `OC[C@H]1O[C@@H](n2cnc3c(NCc4ccco4)ncnc32)[C@H](O)[C@@H]1O`, the Kd was > 4 mM (inactive).

(Values after PubChem BioAssay AID1648 (Sanford-Burnham Center for Chemical Genomics, 2009).)
